Drawing on PubChem BioAssay AID1645863 (Buhrlage Lab, Dana-Farber Cancer Institute and Novartis …, 2021), this text covers IC50 for 82 compounds.

Structures are written as SMILES. The source made the active and inactive calls. The rule behind the calls is not given here.

The target in the test is Ubiquitin carboxyl-terminal hydrolase 10 (Homo sapiens) (UniProt Q14694). The experiment in a line: primary hit verification, biochemical, ubiquitin-specific protease 10 deubiquitylase inhibitors, concentration-effect titration (AID 1645863).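 Note: potency values describe inhibition of USP10 cleavage of a fluorogenic ubiquitin substrate.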 The conditions noted are these: USP10 deubiquitinase enzymatic assay.
Sequence of Ubiquitin carboxyl-terminal hydrolase 10 (Homo sapiens) (Q14694 whole entry, looked up): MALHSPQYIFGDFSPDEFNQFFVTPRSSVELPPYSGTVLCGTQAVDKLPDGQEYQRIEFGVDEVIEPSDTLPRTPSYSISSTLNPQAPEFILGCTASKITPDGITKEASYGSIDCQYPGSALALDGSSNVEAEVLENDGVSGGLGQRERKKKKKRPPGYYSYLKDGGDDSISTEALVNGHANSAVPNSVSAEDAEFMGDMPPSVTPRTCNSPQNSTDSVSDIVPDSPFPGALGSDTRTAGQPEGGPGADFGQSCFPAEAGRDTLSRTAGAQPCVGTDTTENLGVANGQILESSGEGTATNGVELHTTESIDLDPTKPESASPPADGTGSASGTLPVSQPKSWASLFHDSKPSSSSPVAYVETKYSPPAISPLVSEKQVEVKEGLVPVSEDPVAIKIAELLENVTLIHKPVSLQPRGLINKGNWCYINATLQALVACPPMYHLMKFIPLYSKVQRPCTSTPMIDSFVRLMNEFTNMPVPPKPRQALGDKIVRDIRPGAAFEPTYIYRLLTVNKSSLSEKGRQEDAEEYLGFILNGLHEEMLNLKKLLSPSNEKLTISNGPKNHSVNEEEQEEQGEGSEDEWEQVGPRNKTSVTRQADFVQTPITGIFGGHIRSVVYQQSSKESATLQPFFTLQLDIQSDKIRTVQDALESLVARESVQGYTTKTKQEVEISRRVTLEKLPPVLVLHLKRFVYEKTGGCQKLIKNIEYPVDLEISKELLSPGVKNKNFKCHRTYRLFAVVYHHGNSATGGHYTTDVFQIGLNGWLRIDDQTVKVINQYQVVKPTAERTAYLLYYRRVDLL
A word on the IC50: it is the concentration that inhibits the measured activity by half. In the case of `O=C(Cn1c(=O)[nH]c2ccccc2c1=O)NCc1ccccc1Cl`, the IC50 was > 40 µM (inactive).

In the case of `O=C(c1ccco1)N1CCC2(CC1)CC1(CO2)Nc2ccccc2-n2cccc21` (configuration not stated), the IC50 is > 40 µM (inactive).

`Cc1ccc2[nH]c(=O)c(-c3nc4ccc(C)cn4c3NCc3ccc(F)cc3)cc2c1`: the IC50 is 20.3 µM.

For `Cc1ccc(-n2nc(C(=O)Nc3ccc(C)cn3)c3ncn(C)c(=O)c32)cc1`, the IC50 was > 40 µM (inactive).

For the compound `Cn1c(=O)c2ncnnc2n(C)c1=O`, the concentration for half-maximal inhibition (IC50) was 3.09 µM.

Regarding `Nc1ncc(-c2ccc(F)cc2)c(C2CCCN(C(=O)c3ccn[nH]3)C2)n1` (configuration not stated), the IC50 is > 40 µM (inactive).

As for `Cc1cc(OCC(=O)Nc2ccccc2C(=O)Nc2ccccc2)ccc1Cl`, the half-maximal inhibitory concentration (IC50) is 24.6 µM.

As for `Cc1cc(CN2CCCCC2c2cc(=O)n3ccnc3[nH]2)no1` (configuration not stated), the IC50 is > 40 µM (inactive).

For `Cc1nc2nc(C(c3ccccc3)c3ccccc3)[nH]n2c(=O)c1Cc1ccccc1`, the IC50 was > 40 µM (inactive).

As to `O=C(Cn1c(=O)c2sccc2n(CC(=O)OCc2ccccc2)c1=O)NCc1ccccc1Cl`, the half-maximal inhibitory concentration (IC50) is 16.8 µM.

`CCOc1ccc2c(c1)c(=O)c(C(=O)c1ccccc1)cn2CC(=O)Nc1ccc2c(c1)OCCO2`: the concentration for half-maximal inhibition (IC50) was 22.5 µM.

Regarding `Cc1nnc(NC(=O)C2CC(=O)N(CCc3ccc(F)cc3)C2)s1` (configuration not stated), the IC50 is > 40 µM (inactive).

As to `FC(F)(F)c1ccc(Nc2nnnc3ccccc23)cc1`, the IC50 is 16.6 µM.

`COc1cn(-c2ccc(F)cc2)nc1C(=O)Nc1ccc(Cl)cc1Cl`: the IC50 was 16.2 µM.

In the case of `Cc1ccc(-c2nnc3ccc(SCC(=O)N4CCCc5ccccc54)nn23)cc1`, the IC50 is > 40 µM (inactive).

Turning to `Cc1cc(C(=O)NC2(O)C(=O)c3ccccc3C2=O)n(C)n1`, the half-maximal inhibitory concentration (IC50) is 14.2 µM.

Turning to `CC1(C(=O)NCc2ccc(F)cc2)Cn2nc(-c3ccco3)cc2C(=O)N1c1ccc2c(c1)OCCO2` (configuration not stated), the IC50 was > 40 µM (inactive).

Turning to `N#C/C(=C\c1ccc(OCc2cccc(C(=O)O)c2)cc1)c1ccc(F)cc1`, the IC50 is 20.2 µM.

Take `COc1ccc(-c2nc(SCC(=O)Oc3c(C)cccc3C)n3[nH]c(=O)cc3n2)cc1`: the IC50 was 9.85 µM.

For the compound `O=C(COC(=O)c1cccc([N+](=O)[O-])c1)Nc1cccc(Oc2ccccc2)c1`, the IC50 is > 40 µM (inactive).

`O=C(Cn1c(=O)n(CCC(=O)N2CCc3ccccc3C2)c(=O)c2ccccc21)NCc1ccccc1Cl`: the IC50 is > 40 µM (inactive).

As to `O=C(CCn1c(=O)c2ccccc2n(Cc2ccc(F)cc2Cl)c1=O)NCc1ccco1`, the IC50 was 27.6 µM.

As to `Cc1ccc(NC(=O)Nc2ccccc2OCc2cc(=O)n3cc(C)ccc3n2)cc1`, the IC50 was > 40 µM (inactive).

Consider `CCc1ccccc1NC(=O)Cn1c(SCc2ccc(F)cc2)nc2cccnc21`, for which the IC50 was 25 µM.

On to `Cc1cc(C)c(NC(=O)Cc2sc(Nc3ccc(C)c(C)c3)nc2O)c(C)c1`, for which the IC50 is > 40 µM (inactive).

In the case of `COc1ccc2c(c1)CCc1c-2n[nH]c1C(=O)Nc1cc(C)on1`, the IC50 was > 40 µM (inactive).

Take `CCCCN1Cc2sc(NC(=O)Nc3ccccc3C)nc2C1=O`: the IC50 was 15.6 µM.

In the case of `CC1OC2CC(O)C1(O)C1=C2C(O)=C(C(N)=O)C(=N)C1=O` (configuration not stated), the IC50 is 7.46 µM.

On to `COc1cccc(-n2cnc3cc(C(=O)NCCc4ccccc4)ccc3c2=O)c1`, for which the IC50 is 19.8 µM.

Regarding `CSc1cccc(NC(=O)c2cc(-c3cccnc3)n[nH]2)c1`, the IC50 was > 40 µM (inactive).

Turning to `CC(NC(=O)c1nc2n(n1)-c1ccccc1S(=O)(=O)N2)c1cc2ccccc2o1` (configuration not stated), the IC50 is 30.7 µM.

Consider `Cc1noc(C)c1COc1cccc(C(=O)Nc2cc(Cl)ccc2-n2cncn2)c1`, for which the IC50 is > 40 µM (inactive).

Take `CC(=O)[C@H]1c2c(c(O)c3c(O)cccc3c2-c2c3c(c(O)c4c(O)cccc24)C(=O)C[C@](C)(O)[C@H]3C(C)=O)C(=O)C[C@]1(C)O`: the concentration for half-maximal inhibition (IC50) is 39.3 µM.

For `Cc1ccccc1NC(=O)Cc1csc2nc(-c3ccc(F)cc3)cn12`, the IC50 is > 40 µM (inactive).

With `O=C(/C=C/c1ccc(Br)cc1)Nc1cnc2ccccc2c1`, the IC50 was 39.5 µM.

Turning to `O=c1c2ccccc2nc(CSc2cccc(Cl)c2Cl)n1-c1ccccc1`, the IC50 was > 40 µM (inactive).

For the compound `O=C(Nc1ccc2snnc2c1)Nc1ccc(F)cc1F`, the IC50 was > 40 µM (inactive).

Regarding `O=C(CC1C(=O)N(C2CCCC2)c2nc3ccccc3n21)Nc1ccccc1` (configuration not stated), the IC50 was > 40 µM (inactive).

Take `O=C(NC(Cc1ccccc1)c1nc2ccccc2[nH]1)C1CC1` (configuration not stated): the IC50 was > 40 µM (inactive).

Take `Cc1cccc(C)c1NC(=O)Cn1c(=O)n(CCCCC(=O)NCc2ccc3c(c2)OCO3)c(=O)c2ccccc21`: the IC50 is 22.3 µM.

As to `Cc1cccc2nc(CSc3nc4ccc([N+](=O)[O-])cc4[nH]3)cn12`, the IC50 is 19.8 µM.

Consider `CC1Oc2cc3c(-c4c(O)cc(O)c5c(O)c6c(cc45)OC(C)C(C)C6=O)c(O)cc(O)c3c(O)c2C(=O)C1C` (configuration not stated), for which the IC50 was > 40 µM (inactive).

As to `COc1cc(Cl)c(C)cc1NC(=O)Cn1c(=O)n(CC(=O)NCc2ccco2)c(=O)c2ccccc21`, the half-inhibitory concentration (IC50) was 16.3 µM.

As for `Nc1c(-c2ccc(Cl)cc2)cnc2cc(-c3ccc(Cl)c(Cl)c3)nn12`, the IC50 is > 40 µM (inactive).

Take `CCCCN1CC(C(=O)Nc2ccc(C(=O)Nc3ccc(C(N)=O)cc3)cc2)CC1=O` (configuration not stated): the IC50 was > 40 µM (inactive).

Turning to `CCOc1cccc(-c2noc(-c3nn(-c4ccccc4)ccc3=O)n2)c1`, the IC50 is > 40 µM (inactive).

Regarding `COc1ccc(-c2ccc3cc(C(=O)O)ccc3c2)cc1C12CC3CC(CC(C3)C1)C2`, the IC50 is 5.77 µM.

On to `O=C(Cn1c(=O)n(CC2CCC(C(=O)NC3CCCC3)CC2)c(=O)c2ccccc21)NCCC1=CCCCC1` (configuration not stated), for which the IC50 is > 40 µM (inactive).

With `COc1ccc(Cn2c(=O)[nH]c3cc(C(=O)NCCCN4CCN(c5cccc(Cl)c5)CC4)ccc3c2=O)cc1`, the IC50 was > 40 µM (inactive).

Take `Cc1ccc(NC(=O)Nc2ccc(C)n(CC(=O)Nc3cc(C)ccc3C)c2=O)cc1`: the IC50 is > 40 µM (inactive).

Regarding `COc1ccc(NC(=O)c2cc(-c3cccnc3)n[nH]2)cc1Cl`, the IC50 was 28.5 µM.

As for `CCc1cccc(NC(=O)Cc2nnc3ccc(-c4nc(C)no4)cn23)c1`, the IC50 is > 40 µM (inactive).

Regarding `Cc1ccc(C2c3[nH]c4ccccc4c3C[C@H]3C(=O)N(c4ccc(C(=O)NCCc5ccccc5)cc4)C(=O)N23)cc1` (some centres not stated), the IC50 is > 40 µM (inactive).

With `Cn1c(C(=O)NCc2ccccn2)cc2c(=O)[nH]c3ccccc3c21`, the IC50 is > 40 µM (inactive).

In the case of `Cc1ccc(-c2nc(NC(=O)COc3ccc(Cl)cc3)no2)cc1`, the half-inhibitory concentration (IC50) was 13.5 µM.

Turning to `COC(=O)c1ccc2c(=O)n(CCCCCC(=O)NCCc3ccc(OC)c(OC)c3)c(=O)[nH]c2c1`, the IC50 is > 40 µM (inactive).

Take `COc1cc2c(c(OC)c1OC)-c1ccc(NCCc3cccc(F)c3)c(=O)cc1[C@@H](NC(C)=O)CC2`: the IC50 is > 40 µM (inactive).

As for `COc1ccc(CCNC(=O)Cn2c(=O)c3sccc3n(Cc3cccc([N+](=O)[O-])c3)c2=O)cc1OC`, the IC50 was 16 µM.

Take `Cc1ccc(S(=O)(=O)Nc2cccc(Cl)c2)cc1NC(=O)CCC(=O)c1ccc(Cl)cc1`: the IC50 was > 40 µM (inactive).

With `COc1cccc(NC(=O)Cn2c3ccccc3n3c(=O)cc(-c4ccccc4)nc23)c1`, the IC50 is 14.6 µM.

As to `O=c1[nH]c(C2CCN(S(=O)(=O)c3ccc(S(=O)(=O)NC4CC4)cc3)CC2)nc2c1nnn2Cc1c(Cl)cccc1Cl`, the IC50 is 27.5 µM.

For the compound `C[C@H](NC(=O)Cc1ccccc1F)c1nc2cc(-c3ccccc3F)ncn2n1`, the IC50 is 36.4 µM.

Consider `COc1cccc(NC(=O)c2cn(-c3cc(N4CCCC4)ncn3)cn2)c1`, for which the IC50 is > 40 µM (inactive).

Take `COc1ccc(/C=C/C(=O)Nc2ccc3nc(N4CCN(c5ncccn5)CC4)cc(C)c3c2)cc1`: the IC50 was > 40 µM (inactive).

For the compound `COc1cccc(NC(=O)C(Sc2cccc(NC(=O)c3ccccc3F)c2)c2ccccc2)c1` (configuration not stated), the IC50 was 33.6 µM.

With `COc1ccc(-c2cc3n(c(=N)c2C#N)CCc2cc4c(cc2-3)OCO4)cc1O`, the IC50 is > 40 µM (inactive).

As to `Cc1ccc(NC(=O)CSc2ccc(NC(=O)c3ccc(C(=O)O)cc3C(=O)O)cc2)c(C)c1`, the IC50 was > 40 µM (inactive).

Consider `CCOC(=O)c1ccc(NC(=O)Cn2c(=O)n(-c3ccc(CC(=O)NCc4ccco4)cc3)c(=O)c3ccccc32)cc1`, for which the IC50 was > 40 µM (inactive).

As to `O=C(Cn1c(=O)[nH]c2c(-c3ccccc3)c[nH]c2c1=O)NCc1ccccc1Cl`, the IC50 was > 40 µM (inactive).

For the compound `O=C1CC(O)C(O)c2cccc(O)c21` (configuration not stated), the IC50 is > 40 µM (inactive).

With `CC(C)=CCc1c2c(c3occ(-c4ccc(O)c(O)c4)c(=O)c3c1O)C=CC(C)(C)O2`, the IC50 was 6.37 µM.

In the case of `O=C(COc1nc2ccccc2nc1N1CCOCC1)NC(c1ccccc1)c1ccccc1`, the IC50 is > 40 µM (inactive).

With `Cc1cccc(NC(=O)Cn2c(=O)n(-c3cc(C)cc(C)c3)c(=O)c3sccc32)c1`, the IC50 was > 40 µM (inactive).

With `O=C(CCSc1nnnn1-c1ccccc1)Nc1cc(C(F)(F)F)ccc1Cl`, the IC50 was > 40 µM (inactive).

Take `CCC(C)N1CNc2c(c(=O)[nH]c(=O)n2Cc2ccco2)C1` (configuration not stated): the IC50 is > 40 µM (inactive).

As for `O=C(NCCc1nc2ccccc2n1CCOc1ccccc1Cl)C1CCCCC1`, the IC50 is 36.8 µM.

For the compound `CCc1ccc(NC(=O)CSc2nc3nccnc3c(=O)n2Cc2ccc(F)cc2)cc1`, the IC50 was > 40 µM (inactive).

Regarding `Cc1cccc(C)c1NC(=O)COc1ccccc1-c1nnc(-c2ccccc2)o1`, the IC50 is > 40 µM (inactive).

`COc1ccc(/C=C/C(=O)Nc2cccc(S(=O)(=O)Nc3ccccc3Cl)c2)c(OC)c1`: the IC50 was 15 µM.

Turning to `CCOC(=O)C1CCN(C(=O)c2ccc3c(c2)NC(=O)C2CCCN32)CC1` (configuration not stated), the IC50 is > 40 µM (inactive).

Regarding `C/C(=C\Cc1c(O)cc(C)c(C=O)c1O)CC[C@@]1(C)[C@H](C)CCC(=O)[C@@H]1C`, the IC50 was > 40 µM (inactive).

Take `COc1cc(NS(=O)(=O)c2ccc(NC(=O)COc3ccc(C)cc3Br)cc2)nc(OC)n1`: the IC50 was 38.6 µM.
